From article PMC9561263 (2022)

Tested on: 32R-3n (DNA, G4) GCGGTGTGGGAAGAGGGAAGAGGGGGAGGCAG
Experiment: UV melting, 260 nm
Settings: 0.1 M Li+; 0.02 M Tris-HCl pH 7.0; 4 μM DNA, 40 μM ThT; psDNA

## Cc1ccc2c(c1)sc(-c1ccc(N(C)C)cc1)[n+]2C
  ΔTm: ~ 19.8 °C
